Data published in ChEMBL document CHEMBL4261650, “Identification of Cyanamide-Based Janus Kinase 3 (JAK3) Covalent Inhibitors” (J Med Chem, 2018).

Key:
[1] = GSH reactivity in phosphate buffer assessed as half life at 20 uM after 1 hr in presence of L-glutathione by LC-MS/MS analysis; assay type: physicochemical; settings: phosphate buffer with L-glutathione
[2] = Apparent permeability across apical to basolateral side in RRCK cells after […] by HPLC analysis; assay type: ADME, cell-based, Canis lupus familiaris, MDCKII-LE; settings: dog, MDCK
[3] = Drug level in human liver microsomes treated with 10 uM N-(6-(7H-Pyrrolo[2,3-d]pyrimidin-4-yl)-2,3-dihydro-1H-inden-1-yl)cyanamide (11), (S)-N-(6-(7H-Pyrrolo[2,3-d]pyrimidin-4-yl)-2,3-dihydro-1H-inden-1-yl)cyanamide assessed as compound formation at 10 uM in presence of GSH and NADPH after 15 to 45 mins by LC-MS/MS analysis; assay type: ADME, microsome
[4] = Half life in rat whole blood; assay type: ADME, tissue-based
[5] = Half life in human whole blood; assay type: ADME, tissue-based
[6] = AUC in rat at 1 mg/kg, iv administered as single dose by LC-MS/MS analysis; assay type: ADME, organism-based; settings: in vivo
[7] = AUC in rat at 3 mg/kg, po administered as single dose by LC-MS/MS analysis; assay type: ADME, organism-based; settings: in vivo
[8] = AUC in rat at 1 mg/kg, iv co-administered with CYP450 inhibitor ABT by LC-MS/MS analysis; assay type: ADME, organism-based; settings: in vivo
[9] = Half life in rat at 1 mg/kg, iv administered as single dose by LC-MS/MS analysis; assay type: ADME, organism-based; settings: in vivo
[10] = Half life in rat at 1 mg/kg, iv co-administered with CYP450 inhibitor ABT by LC-MS/MS analysis; assay type: ADME, organism-based; settings: in vivo
[11] = Oral bioavailability in rat at 3 mg/kg administered as single dose by LC-MS/MS analysis; assay type: ADME, organism-based; settings: in vivo
[12] = Clearance in rat at 1 mg/kg, iv administered as single dose by LC-MS/MS analysis; assay type: ADME, organism-based; settings: in vivo
[13] = Clearance in rat at 1 mg/kg, iv co-administered with CYP450 inhibitor ABT by LC-MS/MS analysis; assay type: ADME, organism-based; settings: in vivo
[14] = Volume of distribution at steady state in rat at 1 mg/kg, iv administered as single dose by LC-MS/MS analysis; assay type: ADME, organism-based; settings: in vivo, read-out: Vdss
[15] = Volume of distribution at steady state in rat at 1 mg/kg, iv co-administered with CYP450 inhibitor ABT by LC-MS/MS analysis; assay type: ADME, organism-based; settings: in vivo, read-out: Vdss
[16] = Drug metabolism in human liver microsomes assessed as 2-((R)-3-(N-((S)-6-(7H-pyrrolo[2,3-d]pyrimidin-4-yl)-2,3-dihydro-1H-inden-1-yl)carbamimidoylthio)-2-aminopropanamido)acetic acid metabolite formation at 10 uM in presence of GSH and NADPH after 15 to 45 mins by LC-MS/MS analysis; assay type: ADME, microsome
[17] = Drug metabolism in human liver microsomes assessed as (S)-1-(6-(7H-pyrrolo[2,3-d]pyrimidin-4-yl)-2,3-dihydro-1H-inden-1-yl)urea metabolite formation at 10 uM in presence of GSH and NADPH after 15 to 45 mins by LC-MS/MS analysis; assay type: ADME, microsome
[18] = Drug metabolism in human liver microsomes assessed as (S)-4-amino-6-(3-cyanamido-2,3-dihydro-1H-inden-5-yl)pyrimidine-5-carboxylic acid metabolite formation at 10 uM in presence of GSH and NADPH after 15 to 45 mins by LC-MS/MS analysis; assay type: ADME, microsome
[19] = Apparent intrinsic clearance in rat liver microsomes; assay type: ADME, microsome; settings: read-out: CLH(app)
[20] = Apparent intrinsic clearance in human liver microsomes; assay type: ADME, microsome; settings: read-out: CLH(app)
[21] = Covalent reactivity with N-alpha-acetyl-L-lysine assessed as half life; assay type: physicochemical; settings: N-alpha-acetyl-L-lysine solution

Structure (SMILES): N#CN[C@@H]1CCc2ccc(-c3ncnc4[nH]ccc34)cc21
- half-life at 20 µM [1]: 81 min

Structure (SMILES): COc1ccc(S(=O)(=O)N[C@@H]2C[C@H](NC#N)c3cc(-c4ncnc5[nH]ccc45)ccc32)cc1
- half-life at 20 µM [1]: 35 min

Structure (SMILES): N#CN[C@H]1C[C@@H](NS(=O)(=O)c2cccc(F)c2)c2ccc(-c3ncnc4[nH]ccc34)cc21
- half-life at 20 µM [1]: 80 min
- Papp A→B at […] [2]: 10 ×10⁻⁶ cm/s

Structure (SMILES): N=C(N[C@H]1CCc2ccc(-c3ncnc4[nH]ccc34)cc21)SC[C@H](N)C(=O)NCC(=O)O
- Drug metabolism [3]: Metabolite_Detected

Structure (SMILES): N=C(N[C@H]1CCc2ccc(-c3ncnc4[nH]ccc34)cc21)SC[C@H](NC(=O)CC[C@H](N)C(=O)O)C(=O)NCC(=O)O
- Drug metabolism [3]: Metabolite_Detected

Structure (SMILES): C[C@]1(NC#N)CCc2ccc(-c3ncnc4[nH]ccc34)cc21
- half-life at 20 µM [1]: > 120 min
- half-life [4]: > 360 min
- half-life [5]: > 360 min
- Papp A→B at […] [2]: 19 ×10⁻⁶ cm/s

Structure (SMILES): C=CC(=O)N1CCOc2ccc(-c3ncnc4[nH]cc(CCOC)c34)cc21
- half-life at 20 µM [1]: 3 min
- half-life [4]: 4 min
- half-life [5]: 5 min

Structure (SMILES): CN(C#N)C1CCc2ccc(-c3ncnc4[nH]ccc34)cc21 (stereo unspecified)
- half-life at 20 µM [1]: > 190 min

Structure (SMILES): Cn1nccc1S(=O)(=O)N[C@@H]1C[C@H](NC#N)c2cc(-c3ncnc4[nH]ccc34)ccc21
- half-life at 20 µM [1]: 22 min

Structure (SMILES): N#CN[C@H]1CCc2ccc(-c3ncnc4[nH]ccc34)cc21
- half-life at 20 µM [1]: 69 min
- half-life [4]: 150 min
- half-life [5]: > 360 min
- AUC [6]: 466 ng·h/mL
- AUC [7]: 240 ng·h/mL
- AUC [8]: 488 ng·h/mL
- half-life [9]: 16.2 min
- half-life [10]: 45 min
- bioavailability [11]: 16%
- clearance [12]: 36 mL/min/kg
- clearance [13]: 34 mL/min/kg
- Vd [14]: 0.35 L/kg
- Vd [15]: 0.63 L/kg
- Papp A→B at […] [2]: 11 ×10⁻⁶ cm/s
- Drug metabolism [16]: Metabolite_Detected
- Drug metabolism [17]: Metabolite_Detected
- Drug metabolism [18]: Metabolite_Detected
- microsomal CLint [19]: 100 µL/min/mg
- microsomal CLint [20]: 50 µL/min/mg

Structure (SMILES): N#CN[C@@H]1c2cc(-c3ncnc4[nH]ccc34)ccc2C[C@H]1O
- half-life at 20 µM [1]: 47 min

Structure (SMILES): C[C@@H]1Cc2ccc(-c3ncnc4[nH]ccc34)cc2[C@@H]1NC#N
- half-life at 20 µM [1]: 95 min

Structure (SMILES): COCCc1c[nH]c2ncnc(-c3ccc4c(c3)N(C#N)CC(F)(F)O4)c12
- half-life at 20 µM [1]: > 120 min
- Papp A→B at […] [2]: 14 ×10⁻⁶ cm/s

Structure (SMILES): COCCc1c[nH]c2ncnc(-c3ccc4c(c3)C(NC#N)CC4)c12 (stereo unspecified)
- half-life at 20 µM [1]: 74 min

Structure (SMILES): N#CN[C@H]1CCOc2ccc(-c3ncnc4[nH]ccc34)cc21
- half-life at 20 µM [1]: 41 min

Structure (SMILES): N#CN[C@H]1C[C@@H](NS(=O)(=O)c2cccc(C#N)c2)c2ccc(-c3ncnc4[nH]ccc34)cc21
- half-life at 20 µM [1]: 24 min
- Papp A→B at […] [2]: 6 ×10⁻⁶ cm/s

Structure (SMILES): COCCc1c[nH]c2ncnc(-c3ccc4c(c3)C(NC#N)CCO4)c12 (stereo unspecified)
- half-life at 20 µM [1]: 70 min

Structure (SMILES): NC(=O)N[C@H]1CCc2ccc(-c3ncnc4[nH]ccc34)cc21
- Drug metabolism [3]: Metabolite_Detected

Structure (SMILES): N#CN[C@H]1C[C@H](O)c2ccc(-c3ncnc4[nH]ccc34)cc21
- half-life at 20 µM [1]: 40 min

Structure (SMILES): N#CN[C@H]1CCc2ccc(-c3ncnc4[nH]cc(-c5ccccc5)c34)cc21
- half-life at 20 µM [1]: 94 min
- half-life [4]: 61 min
- half-life [5]: 61 min
- Papp A→B at […] [2]: 2 ×10⁻⁶ cm/s

Structure (SMILES): N#CN[C@H]1CCc2ccc(-c3ncnc(N)c3C(=O)O)cc21
- Drug metabolism [3]: Metabolite_Detected

Structure (SMILES): C=CC(=O)Nc1cccc(-c2ncnc3[nH]cc(CCOC)c23)c1
- half-life at 20 µM [1]: 56 min
- half-life [4]: 29 min
- half-life [5]: 148 min
- clearance [12]: 455 mL/min/kg
- Papp A→B at […] [2]: 10 ×10⁻⁶ cm/s

Structure (SMILES): N#CNC1CCOc2ccc(-c3ncnc4[nH]ccc34)cc21 (stereo unspecified)
- half-life at 20 µM [1]: 36 min

Structure (SMILES): COCCS(=O)(=O)N[C@@H]1C[C@H](NC#N)c2cc(-c3ncnc4[nH]ccc34)ccc21
- half-life at 20 µM [1]: 70 min

Structure (SMILES): C[C@@]1(NC#N)CCc2ccc(-c3ncnc4[nH]ccc34)cc21
- half-life at 20 µM [1]: > 120 min

Structure (SMILES): N#CNC1CCc2ccc(-c3ncnc4[nH]ccc34)cc21 (stereo unspecified)
- half-life at 20 µM [1]: 67 min

Structure (SMILES): CS(=O)(=O)N[C@@H]1C[C@H](NC#N)c2cc(-c3ncnc4[nH]ccc34)ccc21
- half-life at 20 µM [1]: 23 min
- half-life [4]: 31 min
- half-life [5]: 208 min
- Papp A→B at […] [2]: < 1 ×10⁻⁶ cm/s

Structure (SMILES): N#CN[C@H]1CCc2ccc(-c3ncnc4[nH]cc(-c5cccc(CO)c5)c34)cc21
- half-life at 20 µM [1]: 69 min
- half-life [4]: 59 min
- half-life [5]: 48 min
- Papp A→B at […] [2]: 4 ×10⁻⁶ cm/s

Structure (SMILES): COCCc1c[nH]c2ncnc(-c3ccc4c(c3)N(C#N)CCO4)c12
- half-life at 20 µM [1]: > 190 min

Structure (SMILES): CC1(NC#N)CCc2ccc(-c3ncnc4[nH]ccc34)cc21 (stereo unspecified)
- half-life at 20 µM [1]: > 120 min

Structure (SMILES): N#CN[C@H]1C[C@@H](O)c2ccc(-c3ncnc4[nH]ccc34)cc21
- half-life at 20 µM [1]: 28 min
- half-life [4]: 20 min
- half-life [5]: 339 min
- Papp A→B at […] [2]: 2 ×10⁻⁶ cm/s

Structure (SMILES): C1CNC1 [AZETIDINE]
- half-life [21]: 155 min

Structure (SMILES): C1CCNCC1 [PIPERIDINE]
- half-life [21]: 666 min

Structure (SMILES): C1CCNC1 [PYRROLIDINE]
- half-life [21]: 462 min
